These results are taken from article PMC12812011 (Chemmedchem, 2025).

The subject of data set [1] is particles pseudotyped with the glycoprotein of vesicular stomatitis virus (VSV-G). The format is cell-based.
The test system of data set [2] is pseudotyped particles bearing the SARS-CoV-2 B.1 S protein. Type of data set: cell-based. To be noted: TMPRSS2-independent (cathepsin L-dependent) entry.
The test system of data set [3] is particles pseudotyped with the glycoprotein of vesicular stomatitis virus (VSV-G). Type of data set: cell-based. The source holds these as a separate data set.
In data set [4] the test system is SARS-CoV-2. Details: method as in PMID 32142651, PMID 33676899, PMID 33393462, PMID 32312781, PMID 35382133. To be noted: cell culture; cited from earlier work.
Data set [5] relates to pseudotyped particles bearing the SARS-CoV-2 B.1 S protein. The format is cell-based. The following applies: TMPRSS2-dependent entry.
The test system of data set [6] is SARS-CoV-2 infection. To be noted: cited from earlier work; for benefit to COVID-19 patients: clinical trials, oral (camostat), intravenous (nafamostat).
The test system of data set [7] is MCF-10A cells. The data set can be described thus: AlamarBlue cell viability assay. To be noted: concentrations up to 100 µM. (The colour change of resazurin is a common sign of viable cells or microbes.)
For data set [8], the system named is salmon testes DNA. The data set can be described thus: UV-thermal DNA denaturation with salmon testes DNA. The following applies: compound to DNA base ratio 0.1, phosphate buffer pH 7.
Method: UV thermal denaturation experiments
Thermal melting experiments were conducted with a Varian Cary 300 Bio spectrophotometer equipped
with a 6×6 multicell temperature-controlled block. Temperatures were monitored with a thermistor
inserted into a 1 cm quartz cuvette containing the same volume of water as in the sample cells. Absorbance
changes at 260 nm were monitored from a range of 30 °C to 90 °C with a heating rate of 1 °C min -1 and a
data collection rate of five points per °C. The salmon sperm DNA was purchased from Sigma Aldrich
(extinction coefficient ε260= 6600 M-1 cm-1). A quartz cell with a 1 cm path length was filled with a 1 mL
solution of DNA or DNA-compound complex.
were prepared in a phosphate buffer ([10 mM K2HPO4/KH2PO4], adjusted to pH 7) so that a compound to
DNA base ratio of 0.1 was obtained. The thermal melting temperatures of the duplex or duplex-compound
complex obtained from the first derivative of the melting curves are reported.
The subject of data set [9] is poly(dA•dT)2. Also on record: method as in PMID 18247550. The following applies: DNA oligo rich in AT pairs; cited from earlier work.

“Also recorded” adds a separate entry of the source.

With `CN(C)C(=O)COC(=O)Cc1ccc(OC(=O)c2ccc(NC(=N)N)cc2)cc1` [Camostat, camostat], the “VSV-G-driven entry into Calu-3 cells” value in data set [1] was “reverse observation”. Moreover, the “SARS-CoV-2 S protein-driven entry into Vero76 cells” value in data set [2] is reported as “not inhibited”. Further, in data set [3], the “VSV-G-driven entry into Vero76 cells” value was “not inhibited”. In data set [4], the “inhibition of SARS-CoV-2 infection” value is recorded as “inhibit SARS‐CoV‐2 infection with high efficiency”. Besides, in data set [5], the “SARS-CoV-2 S protein-mediated entry into Calu-3 cells” value is given as “inhibited”. Besides, in [6], the “benefit to COVID-19 patients” value is listed as “little if any benefit”.

As to `N=C(N)Nc1ccc(NC(=S)Nc2ccccc2)cc1` [Compound 2], the IC50 result in data set [7] is listed as “could not be found”. Besides, in [7] (72 hours), the “cytotoxicity (cell death)” value was “no cytotoxicity; also recorded: no significant cell‐death was detected”. Moreover, the ΔTm in data set [8] was 0.65 °C.

As to `N=C(N)Nc1ccc(NC(=S)Nc2ccccn2)cc1` [Compound 20], in [8], the ΔTm was −0.25 °C.

On to `N=C(N)c1ccc2cc(OC(=O)c3ccc(N=C(N)N)cc3)ccc2c1` [Nafamostat, nafamostat], for which, in data set [6], the “benefit to COVID-19 patients” value is on record as “little if any benefit”.

On to `CCN(CC)CCCC(C)Nc1ccnc2cc(Cl)ccc12` (centres unmarked) [chloroquine], for which the “VSV-G-driven entry into Calu-3 cells” value in data set [1] is “reverse observation”. Besides, the “SARS-CoV-2 S protein-driven entry into Vero76 cells” value in data set [2] is “reduced by the highest concentration”. In addition, the “VSV-G-driven entry into Vero76 cells” value in [3] is recorded as “reduced by the highest concentration”.

`N=C(N)Nc1ccc(NC(=S)Nc2ccc(NC(=N)N)cc2)cc1` [hit‐compound]: in data set [9], the ΔTm was 23.0 °C.

For aprotinin, in data set [6] (aerosolized), the “clinical benefit in COVID-19 patients” value is on record as “of clinical benefit” and the “tolerability in COVID-19 patients” value is reported as “well tolerated”.

For orientation: ΔTm means the shift of the melting midpoint relative to a reference.
